From ChEMBL document CHEMBL4834455, “Sesquiterpenes and Steroids from an Endophytic Eutypella scoparia” (J Nat Prod, 2021)
Calls of active or inactive are those of the source. The calls are words filed in the database; no cut-off is given here.

Columns and labels:
[1] = Cytotoxicity against African green monkey MARC145 cells assessed as cell growth inhibition measured after 48 hrs by MTT assay; assay type: cell-based; conditions: chlorocebus aethiops, marc145, 48 h
MCF7 = assay: Antiproliferative activity against human MCF7 cells assessed as cell growth inhibition measured after 48 hrs by MTT assay; assay type: functional, cell-based
HeLa = assay: Antiproliferative activity against human HeLa cells assessed as cell growth inhibition measured after 48 hrs by MTT assay; assay type: functional, cell-based
MDA-MB-231 = assay: Antiproliferative activity against human MDA-MB-231 cells assessed as cell growth inhibition measured after 48 hrs by MTT assay; assay type: functional, cell-based
Staphylococcus aureus [2] = assay: Antibacterial activity against Staphylococcus aureus CMCC26003 assessed as bacterial growth inhibition by microbroth dilution method; assay type: functional
Staphylococcus aureus [3] = assay: Antibacterial activity against methicillin-resistant Staphylococcus aureus JCSC3063 assessed as bacterial growth inhibition by microbroth dilution method; assay type: functional

CC(C)[C@@H](C)/C=C/[C@@H](C)[C@H]1CCC2=C3C=CC4=CC(=O)CC[C@]4(C)[C@H]3CC[C@@]21C
Activity [1]: Non-Toxic | Activity (MCF7): inactive | Activity (HeLa): inactive | Activity (MDA-MB-231): inactive | Activity (Staphylococcus aureus [2]): inactive | Activity (Staphylococcus aureus [3]): inactive

C=C(C(C)C)[C@H](O)C[C@@H](C)[C@H]1CC[C@@]2(C)C3=C(CC[C@]12C)[C@@]1(C)CCC(=O)C(C)(C)[C@@H]1CC3
Activity [1]: Non-Toxic | Activity (MCF7): inactive | Activity (HeLa): inactive | Activity (MDA-MB-231): inactive | Activity (Staphylococcus aureus [2]): inactive | Activity (Staphylococcus aureus [3]): inactive

CC1=CCC[C@H]2CC3=C(CO)C(=O)OC3=C[C@]12C
Activity [1]: Non-Toxic | Activity (MCF7): inactive | Activity (HeLa): inactive | Activity (MDA-MB-231): inactive | Activity (Staphylococcus aureus [2]): inactive | Activity (Staphylococcus aureus [3]): inactive

CC1=CCC[C@@]2(C)C[C@H]3OC(=O)[C@@H](C)[C@@H]3C[C@H]12
Activity [1]: Non-Toxic | Activity (MCF7): inactive | Activity (HeLa): inactive | Activity (MDA-MB-231): inactive | Activity (Staphylococcus aureus [2]): inactive | Activity (Staphylococcus aureus [3]): inactive

CC1=C2C[C@@H](C(C)(C)O)CC[C@]2(C)CCC1=O
Activity [1]: Non-Toxic | Activity (MCF7): inactive | Activity (HeLa): inactive | Activity (MDA-MB-231): inactive | Activity (Staphylococcus aureus [2]): inactive | Activity (Staphylococcus aureus [3]): inactive

C=C1CCC(=O)[C@@]2(C)CC[C@H](C(C)(C)O)C[C@H]12
Activity [1]: Non-Toxic | Activity (MCF7): inactive | Activity (HeLa): inactive | Activity (MDA-MB-231): inactive | Activity (Staphylococcus aureus [2]): inactive | Activity (Staphylococcus aureus [3]): inactive

CC[C@H](CC[C@@H](C)[C@H]1CC[C@H]2[C@@H]3CC=C4C[C@@H](O)CC[C@]4(C)[C@H]3CC[C@]12C)C(C)C [BETA-SITOSTEROL]
Activity [1]: Non-Toxic | Activity (MCF7): inactive | Activity (HeLa): inactive | Activity (MDA-MB-231): inactive | Activity (Staphylococcus aureus [2]): inactive | Activity (Staphylococcus aureus [3]): inactive

CC(C)=CCC/C(C)=C/CC/C(C)=C/CC/C=C(\C)CC/C=C(\C)CCC=C(C)C [SQUALENE]
Activity [1]: Non-Toxic | Activity (MCF7): inactive | Activity (HeLa): inactive | Activity (MDA-MB-231): inactive | Activity (Staphylococcus aureus [2]): inactive | Activity (Staphylococcus aureus [3]): inactive

C=C1CCC[C@@]2(C)CC[C@H](C(C)(C)O)C[C@H]12
Activity [1]: Non-Toxic | Activity (MCF7): inactive | Activity (HeLa): inactive | Activity (MDA-MB-231): inactive | Activity (Staphylococcus aureus [2]): inactive | Activity (Staphylococcus aureus [3]): inactive

C[C@H]1CCC(=O)[C@@]2(C)CC[C@H](C(C)(C)O)[C@H](O)[C@H]12
Activity [1]: Non-Toxic | Activity (MCF7): inactive | Activity (HeLa): inactive | Activity (MDA-MB-231): inactive | Activity (Staphylococcus aureus [2]): inactive | Activity (Staphylococcus aureus [3]): inactive

CC1=CCCC2(C)CC[C@H](C(C)CO)C[C@H]12 (single isomer, unassigned)
Activity [1]: Non-Toxic | Activity (MCF7): inactive | Activity (HeLa): inactive | Activity (MDA-MB-231): inactive | Activity (Staphylococcus aureus [2]): 6.3 µg/mL

C=C1C[C@@H](O)C[C@@]2(C)CC[C@H](C(C)(C)O)C[C@H]12
Activity [1]: Non-Toxic | Activity (MCF7): inactive | Activity (HeLa): inactive | Activity (MDA-MB-231): inactive | Activity (Staphylococcus aureus [2]): inactive | Activity (Staphylococcus aureus [3]): inactive

CC1=CC(=O)C[C@@]2(C)CC[C@H](C(C)(C)O)C[C@H]12
Activity [1]: Non-Toxic | Activity (MCF7): inactive | Activity (HeLa): inactive | Activity (MDA-MB-231): inactive | Activity (Staphylococcus aureus [2]): inactive | Activity (Staphylococcus aureus [3]): inactive

CC(C)[C@H](C)/C=C/[C@@H](C(=O)O)[C@H]1CCC2=C3C=C[C@H]4CC(=O)CC[C@]4(C)[C@H]3CC[C@@]21C
Activity [1]: Non-Toxic | Activity (MCF7): inactive | Activity (HeLa): inactive | Activity (MDA-MB-231): inactive | Activity (Staphylococcus aureus [2]): inactive | Activity (Staphylococcus aureus [3]): inactive

CC1=CC(=O)C[C@@]2(C)CC[C@H](C(C)CO)C[C@H]12 (some centres not stated)
Activity [1]: Non-Toxic | Activity (MCF7): inactive | Activity (HeLa): inactive | Activity (MDA-MB-231): inactive | Activity (Staphylococcus aureus [2]): inactive | Activity (Staphylococcus aureus [3]): inactive

C[C@H]1CCC(=O)[C@@]2(C)CCC(C(C)(C)O)=C[C@H]12
Activity [1]: Non-Toxic | Activity (MCF7): inactive | Activity (HeLa): inactive | Activity (MDA-MB-231): inactive | Activity (Staphylococcus aureus [2]): inactive | Activity (Staphylococcus aureus [3]): inactive

C[C@H]1CCC(=O)[C@@]2(C)CC=C(C(C)(C)O)C[C@H]12
Activity [1]: Non-Toxic | Activity (MCF7): inactive | Activity (HeLa): inactive | Activity (MDA-MB-231): inactive | Activity (Staphylococcus aureus [2]): inactive | Activity (Staphylococcus aureus [3]): inactive

CC(=O)OCC(=O)[C@H]1CC[C@]2(C)CCC=C(C)[C@H]2C1
Activity [1]: Non-Toxic | Activity (MCF7): inactive | Activity (HeLa): inactive | Activity (MDA-MB-231): inactive | Activity (Staphylococcus aureus [2]): inactive | Activity (Staphylococcus aureus [3]): inactive
